# Earlier results, collected in US7446098B2, “Combination therapy for treating protein deficiencies” (Mount Sinai School of Medicine of New York University, priority 2003, dated 2008).
# Numbering of substitutions follows the chain as printed.
# Legend:
# [1] = biological target: T1, wild-type α-Gal A (Homo sapiens, UniProt P06280); settings: transfected COS-7 cells; cited from earlier work
# T1 construct: expressed in transfected cells; host or cells: COS-7
# T1 sequence (P06280 32-429): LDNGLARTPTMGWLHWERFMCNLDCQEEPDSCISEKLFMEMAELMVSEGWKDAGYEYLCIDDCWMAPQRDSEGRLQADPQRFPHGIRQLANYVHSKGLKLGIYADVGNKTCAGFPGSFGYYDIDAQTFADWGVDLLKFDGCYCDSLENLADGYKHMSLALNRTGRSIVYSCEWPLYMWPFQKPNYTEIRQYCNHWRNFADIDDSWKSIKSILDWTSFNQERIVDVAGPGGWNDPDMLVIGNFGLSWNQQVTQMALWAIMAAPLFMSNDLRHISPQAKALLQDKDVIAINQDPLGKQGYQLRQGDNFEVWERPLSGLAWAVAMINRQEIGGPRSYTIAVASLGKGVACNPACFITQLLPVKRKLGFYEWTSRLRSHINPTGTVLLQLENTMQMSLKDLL
# [2] = biological target: T2, mutant α-Gal A (R301Q) (Homo sapiens, UniProt P06280, R301Q); settings: neutral pH; cited from earlier work
# T2 sequence (P06280 32-429 R301Q): T1 sequence (P06280 32-429) with R270Q
# [3] = test system: mutant α-Gal A (R301Q or Q279E); settings: lymphoblasts from Fabry patients with R301Q or Q279E mutations; cited from earlier work
# [4] = biological target: T3, mutant (R301Q) α-Gal A (Homo sapiens, UniProt P06280, R301Q); settings: oral administration; transgenic mice overexpressing mutant (R301Q) α-Gal A; cited from earlier work
# T3 construct: expressed in transfected cells; host or cells: transgenic mice (major organs)
# T3 sequence (P06280 32-429 R301Q): T1 sequence (P06280 32-429) with R270Q
smiles,measurement,setting,value
"OC[C@H]1NC[C@H](O)[C@@H](O)[C@H]1O [DGJ, 1-deoxygalactonojirimycin]",activity of wild-type α-Gal A,[1],able to increase
same,amount of wild-type α-Gal A,[1],able to increase
same,in vitro stability of mutant α-Gal A (R301Q),[2],effectively increased
same,mutant enzyme activity in lymphoblasts,[3],enhanced
same,enzyme activity in major organs,[4],substantially elevated
